Data reported in patent publication US20230212121A1 (DAEGU-GYEONGBUK MEDICAL INNOVATION FOUNDATION, priority 2020, published 2023).

What was measured:
Type in all cases: cell-based
[1] = target: T1, dopamine transporter (DAT) (Homo sapiens, UniProt Q01959); assay: Dopamine reuptake inhibition, [3H]-DA, HEK-293 cells transfected with dopamine transporter cDNA; settings: for Triple reuptake inhibition (Ratio %) DAT: compound 1 μM, 20-30 nM [3H]-DA, relative to control without compound = 100%, lower value = more inhibition; for IC50: concentration at which Ratio % is 50%, 6 concentrations 1 nM to 1 μM, read-out: Triple reuptake inhibition (IC50, μM) DAT
T1 construct: expressed in transfected cells; host or cells: HEK-293
T1 sequence (Q01959 whole entry, species assumed): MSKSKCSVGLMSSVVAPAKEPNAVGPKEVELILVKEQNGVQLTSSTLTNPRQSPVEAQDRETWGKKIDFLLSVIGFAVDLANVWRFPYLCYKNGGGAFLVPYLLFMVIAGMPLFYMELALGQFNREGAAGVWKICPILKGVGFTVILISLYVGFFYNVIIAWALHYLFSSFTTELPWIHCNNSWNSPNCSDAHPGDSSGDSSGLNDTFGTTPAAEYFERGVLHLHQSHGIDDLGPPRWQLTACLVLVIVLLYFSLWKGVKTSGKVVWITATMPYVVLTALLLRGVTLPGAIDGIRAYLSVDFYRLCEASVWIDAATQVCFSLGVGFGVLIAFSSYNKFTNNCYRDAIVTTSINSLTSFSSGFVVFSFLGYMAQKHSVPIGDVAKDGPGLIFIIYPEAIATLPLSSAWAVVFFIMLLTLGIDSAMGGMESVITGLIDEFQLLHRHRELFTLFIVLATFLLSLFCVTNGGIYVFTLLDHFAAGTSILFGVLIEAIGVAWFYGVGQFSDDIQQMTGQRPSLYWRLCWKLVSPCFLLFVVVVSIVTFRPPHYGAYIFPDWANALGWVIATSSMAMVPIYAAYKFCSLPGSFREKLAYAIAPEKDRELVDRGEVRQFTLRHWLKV
Description: (§1) In order to evaluate the reuptake inhibitory effect of the compounds of the Examples according to the present invention on serotonin, norepinephrine and dopamine, the experiments below were performed, and the results are shown in Table 17.
(§2) To evaluate the reuptake inhibition effect on dopamine, the dopamine transporter cDNA was transfected using the HEK-293 cell line, and then sub-seeded in a 24 well plate the next day. After removing the medium, each compound of the Examples or Comparative Examples diluted to 1 μM in uptake buffer was added to a concentration of 200 μl/well and cultured at 37° C. for 15 minutes. 100 μl of uptake buffer containing 20-30 nM [3H]-DA was added and cultured at 37° C. for 5 minutes. The reaction solution was quickly removed and washed three times with 1 ml ice-cold uptake buffer. After dissolving the resultant in 1% SDS (0.5 ml), the degree of binding of radioisotope-labeled dopamine to the transporter was measured.
(§3) In addition, when evaluating the reuptake inhibitory effect on dopamine, norepinephrine, and serotonin, the same method was performed without treating each compound of the Examples or Comparative Examples as a control, the degree of binding of radioisotope-labeled dopamine, norepinephrine, and serotonin to the transporter was measured, and by using this as a reference (100%), the triple reuptake inhibitory effect was evaluated as a relative ratio (Ratio %). That is, in the control group, the binding of dopamine, norepinephrine, and serotonin to transporters is not inhibited, but when each compound of the Examples is treated and thus the binding is inhibited, the Ratio % value decreases.
(§4) Meanwhile, the Ratio % values were compared, and in the case of the compounds of Examples 6, 10, 13, 14, 17, 20, 21, 22, 30, 31, 32, 34, 36, 38, 39, 40, 54, 55, 56, 57, 58 and 73 with excellent reuptake inhibitory effects on dopamine, norepinephrine and serotonin, the concentration at which the Ratio % is 50% was calculated using a total of 6 concentrations (1 nM, 5 nM, 10 nM, 50 nM, 100 nM, and 1 μM) and expressed as IC50.

[2] = target: T2, serotonin transporter (SERT) (Homo sapiens, UniProt P31645); assay: Serotonin reuptake inhibition, [3H]-5-HT, HEK-293 cells transfected with 5-HT transporter cDNA; settings: for Triple reuptake inhibition (Ratio %) SERT: compound 1 μM, [3H]-5-HT, relative to control without compound = 100%, lower value = more inhibition; for IC50: concentration at which Ratio % is 50%, 6 concentrations 1 nM to 1 μM, read-out: Triple reuptake inhibition (IC50, μM) SERT
T2 construct: expressed in transfected cells; host or cells: HEK-293
T2 sequence (P31645 whole entry, species assumed): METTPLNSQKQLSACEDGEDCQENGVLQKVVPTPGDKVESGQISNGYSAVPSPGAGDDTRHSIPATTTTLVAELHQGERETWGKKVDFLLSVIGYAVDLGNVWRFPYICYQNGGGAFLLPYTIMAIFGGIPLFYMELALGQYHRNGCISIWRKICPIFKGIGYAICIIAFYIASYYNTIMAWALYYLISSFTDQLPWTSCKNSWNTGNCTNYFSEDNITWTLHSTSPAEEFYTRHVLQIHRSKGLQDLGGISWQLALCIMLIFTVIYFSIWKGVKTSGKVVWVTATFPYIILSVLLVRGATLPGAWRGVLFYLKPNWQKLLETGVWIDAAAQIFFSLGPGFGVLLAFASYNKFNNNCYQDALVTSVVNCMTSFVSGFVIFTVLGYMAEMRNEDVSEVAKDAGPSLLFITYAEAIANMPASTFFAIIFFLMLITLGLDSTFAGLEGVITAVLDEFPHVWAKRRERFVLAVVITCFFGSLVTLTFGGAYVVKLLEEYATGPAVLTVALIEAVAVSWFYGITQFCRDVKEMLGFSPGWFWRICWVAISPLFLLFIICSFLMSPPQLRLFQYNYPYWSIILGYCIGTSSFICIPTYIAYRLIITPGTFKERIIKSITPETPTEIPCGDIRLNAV
Description: as §1, §2
(§5) For norepinephrine (NE) and serotonin (5-HT), the degree of binding of radioisotope-labeled norepinephrine or serotonin to the transporter was measured in the same manner as above, except that cells transfected with NE or 5-HT transporter cDNA were used and [3H]—NE or [3H]-5-HT was used as a substrate.
as §3, §4

[3] = target: T3, norepinephrine transporter (NET) (Homo sapiens, UniProt P23975); assay: Norepinephrine reuptake inhibition, [3H]-NE, HEK-293 cells transfected with NE transporter cDNA; settings: for Triple reuptake inhibition (Ratio %) NET: compound 1 μM, [3H]-NE, relative to control without compound = 100%, lower value = more inhibition; for IC50: concentration at which Ratio % is 50%, 6 concentrations 1 nM to 1 μM, read-out: Triple reuptake inhibition (IC50, μM) NET
T3 construct: expressed in transfected cells; host or cells: HEK-293
T3 sequence (P23975 whole entry, species assumed): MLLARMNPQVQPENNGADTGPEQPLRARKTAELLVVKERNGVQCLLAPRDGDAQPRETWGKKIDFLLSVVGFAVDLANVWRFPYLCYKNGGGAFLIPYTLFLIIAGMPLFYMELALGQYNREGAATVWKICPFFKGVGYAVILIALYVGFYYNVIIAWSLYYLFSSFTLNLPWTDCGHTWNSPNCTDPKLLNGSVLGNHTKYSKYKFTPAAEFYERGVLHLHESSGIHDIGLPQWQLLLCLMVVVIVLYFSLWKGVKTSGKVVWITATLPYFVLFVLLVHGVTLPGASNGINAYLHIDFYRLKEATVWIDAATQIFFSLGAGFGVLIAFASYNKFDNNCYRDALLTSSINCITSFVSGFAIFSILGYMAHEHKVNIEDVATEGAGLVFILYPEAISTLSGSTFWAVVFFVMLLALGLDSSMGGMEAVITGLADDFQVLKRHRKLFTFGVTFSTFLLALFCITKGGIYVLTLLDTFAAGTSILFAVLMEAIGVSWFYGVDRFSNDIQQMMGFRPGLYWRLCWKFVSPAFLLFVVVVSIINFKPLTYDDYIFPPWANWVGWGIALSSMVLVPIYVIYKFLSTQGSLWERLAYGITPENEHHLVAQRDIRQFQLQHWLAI
Description: as §1, §2, §5, §3, §4

Row | Structure (SMILES) | Triple reuptake inhibition (Ratio %) DAT [1] [%] | Triple reuptake inhibition (Ratio %) SERT [2] [%] | Triple reuptake inhibition (Ratio %) NET [3] [%] | IC50 [1] [µM] | IC50 [2] [µM] | IC50 [3] [µM]
1 | CCCCOc1ccc(S(=O)(=O)NCCCN2CCN(c3cccc(C(F)(F)F)c3)CC2)cc1 [Example 26, 4-butoxy-N-(3-(4-(3-(trifluoromethyl)phenyl)piperazin-1-yl)propyl)benzenesulfonamide] | 97.83 | 50.98 | 93.31 | – | – | –
2 | CCCCOc1ccc(S(=O)(=O)NCCCN2CCN(Cc3ccccc3)CC2)cc1 [Example 27, N-(3-(4-benzylpiperazin-1-yl)propyl)-4-butoxybenzenesulfonamide] | 88.17 | 76.16 | 36.89 | – | – | –
3 | CCCCOc1ccc(S(=O)(=O)NCCCN2CCC(Cc3ccc(Cl)cc3)CC2)cc1 [Example 28, 4-butoxy-N-(3-(4-(4-chlorobenzyl)piperidin-1-yl)propyl)benzenesulfonamide] | 94.53 | 26.63 | 64.36 | – | – | –
4 | CCCCOc1ccc(S(=O)(=O)NCCCN2CCC(Cc3ccc(C)cc3)CC2)cc1 [Example 29, 4-butoxy-N-(3-(4-(4-methylbenzyl)piperidin-1-yl)propyl)benzenesulfonamide] | 89.50 | 39.39 | 54.04 | – | – | –
5 | CCCCOc1ccc(S(=O)(=O)NCCCN2CCC(Cc3ccc(OC)cc3)CC2)cc1 [Example 30, 4-butoxy-N-(3-(4-(4-methoxybenzyl)piperidin-1-yl)propyl)benzenesulfonamide] | – | 23.18 | 37.58 | 11.6 | 0.538 | 1.7
6 | CCCCOc1ccc(S(=O)(=O)NCCCN2CCC(Cc3cccc(Cl)c3)CC2)cc1 [Example 31, 4-butoxy-N-(3-(4-(3-chlorobenzyl)piperidin-1-yl)propyl)benzenesulfonamide] | – | 14.27 | 18.93 | 1.05 | 0.216 | 0.041
7 | CCCCOc1ccc(S(=O)(=O)NCCCN2CCC(Cc3ccc(F)cc3)CC2)cc1 [Example 32, 4-butoxy-N-(3-(4-(4-fluorobenzyl)piperidin-1-yl)propyl)benzenesulfonamide] | 45.64 | 30.80 | 20.42 | 2.14 | 0.386 | 0.749
8 | CCCCOc1ccc(S(=O)(=O)NCCCN2CCC(c3cccc(Cl)c3Cl)CC2)cc1 [Example 33, 4-butoxy-N-(3-(4-(2,3-dichlorophenyl)piperidin-1-yl)propyl)benzenesulfonamide] | 66.67 | 59.74 | 68.93 | – | – | –
9 | O=S(=O)(NCCCN1CCC(Cc2ccccc2)CC1)c1ccc(OC(F)(F)F)cc1 [Example 34, N-(3-(4-benzylpiperidin-1-yl)propyl)-4-(trifluoromethoxy)benzenesulfonamide] | 16.35 | 57.25 | 20.03 | 0.942 | 2.59 | 0.612
10 | CCCCOc1ccc(S(=O)(=O)NCCCN2CCC(Cc3ccccc3)CC2)nc1 [Example 35, N-(3-(4-benzylpiperidinyl)propyl)-5-butoxypyridin-2-sulfonamide] | 16.12 | 53.08 | 51.99 | – | – | –
11 | O=S(=O)(NCCN1CCC(Cc2ccccc2)CC1)c1ccc2ccccc2c1 [Example 38, N-(2-(4-benzylpiperidin-1-yl)ethyl) naphthalen-2-sulfonamide] | 56.59 | 34.20 | 21.54 | 0.493 | – | –
12 | O=S(=O)(NCCN1CCC(c2ccccc2)CC1)c1cccc2ccccc12 [Example 43, N-(2-(4-phenylpiperidin-1-yl)ethyl)naphthalen-1-sulfonamide] | 80.21 | 64.15 | 34.97 | – | – | –
13 | O=S(=O)(NCCN1CCN(Cc2ccccc2)CC1)c1ccc2ccccc2c1 [Example 46, N-(2-(4-benzylpiperazin-1-yl)ethyl)naphthalen-2-sulfonamide] | 83.08 | 49.64 | 87.27 | – | – | –
14 | O=S(=O)(NCCN1CCN(c2ccc(Cl)cc2)CC1)c1ccc2ccccc2c1 [Example 50, N-(2-(4-(4-chlorophenyl)piperazinyl)ethyl)naphthalen-2-sulfonamide] | 86.50 | 45.16 | 87.27 | – | – | –

Second part, led by results:

Row | Triple reuptake inhibition (Ratio %) DAT [1] [%] | Triple reuptake inhibition (Ratio %) SERT [2] [%] | Triple reuptake inhibition (Ratio %) NET [3] [%] | Structure (SMILES) | IC50 [1] [µM] | IC50 [2] [µM] | IC50 [3] [µM]
15 | 30.48 | 72.85 | 79.12 | O=S(=O)(NCCN1CCC(Cc2ccccc2)CC1)c1cc2ccccc2[nH]1 [Example 36, N-(2-(4-benzylpiperidin-1-yl)ethyl)-1H-indol-2-sulfonamide] | 0.843 | – | –
16 | 31.26 | 15.77 | 18.46 | O=S(=O)(NCCN1CCC(Cc2ccccc2)CC1)c1cccc2ccccc12 [Example 39, N-(2-(4-benzylpiperidin-1-yl)ethyl)naphthalen-1-sulfonamide] | 1.16 | – | –
17 | 41.80 | 33.23 | 33.45 | O=S(=O)(NCCN1CCC(Cc2ccccc2)CC1)c1ccc(-c2ccccc2)cc1 [Example 40, N-(2-(4-benzylpiperidin-1-yl)ethyl)-[1,1′-biphenyl]-4-sulfonamide] | 3.92 | 3.08 | 1.05
18 | 80.21 | 64.15 | 34.97 | O=S(=O)(NCCN1CCC(Cc2ccccc2)CC1)c1ccc2ccccc2n1 [Example 41, N-(2-(4-benzylpiperidin-1-yl)ethyl)quinolin-2-sulfonamide] | – | – | –
19 | 80.21 | 64.15 | 34.97 | O=S(=O)(NCCN1CCC(c2ccccc2)CC1)c1ccc2ccccc2c1 [Example 42, N-(2-(4-phenylpiperidin-1-yl)ethyl)naphthalen-2-sulfonamide] | – | – | –
20 | 37.93 | 15.55 | 14.04 | O=S(=O)(NCCN1CCC(c2ccccc2)CC1)c1ccc(-c2ccccc2)cc1 [Example 44, N-(2-(4-phenylpiperidin-1-yl)ethyl)-[1,1′-biphenyl]-4-sulfonamide] | – | – | –
21 | 89.88 | 56.73 | 45.04 | O=S(=O)(NCCN1CCC(c2ccccc2)CC1)c1ccc2ccccc2n1 [Example 45, N-(2-(4-phenylpiperidin-1-yl)ethyl)quinolin-2-sulfonamide] | – | – | –
22 | 83.08 | 49.64 | 87.27 | O=S(=O)(NCCN1CCN(Cc2ccccc2)CC1)c1cccc2ccccc12 [Example 47, N-(2-(4-benzylpiperazin-1-yl)ethyl)naphthalen-1-sulfonamide] | – | – | –
23 | 68.53 | 47.19 | 64.45 | O=S(=O)(NCCN1CCN(c2ccc(Cl)cc2)CC1)c1cccc2ccccc12 [Example 51, N-(2-(4-(4-chlorophenyl)piperazinyl)ethyl)naphthalen-1-sulfonamide] | – | – | –
